From BindingDB's records for PubMed 7796807 (Synaptic Pharmaceutical, 1995) come the findings set out here.

pKi: −log10 of the molar value.

5-hydroxytryptamine receptor 4, sequence (Q62758 whole entry): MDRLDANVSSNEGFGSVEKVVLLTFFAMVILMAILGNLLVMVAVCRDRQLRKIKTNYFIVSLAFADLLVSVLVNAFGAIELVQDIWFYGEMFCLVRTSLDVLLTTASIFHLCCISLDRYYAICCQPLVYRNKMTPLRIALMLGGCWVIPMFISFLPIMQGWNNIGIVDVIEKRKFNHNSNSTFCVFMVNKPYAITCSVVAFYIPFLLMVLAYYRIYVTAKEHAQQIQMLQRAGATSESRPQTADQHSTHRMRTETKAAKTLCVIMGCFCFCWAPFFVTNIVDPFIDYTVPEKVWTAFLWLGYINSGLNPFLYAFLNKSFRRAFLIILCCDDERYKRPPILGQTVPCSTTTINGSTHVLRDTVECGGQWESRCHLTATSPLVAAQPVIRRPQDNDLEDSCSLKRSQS

This test has as its target 5-hydroxytryptamine receptor 4 (Rattus norvegicus, UniProt Q62758).
The compound `CCCN(CCC)C1CCc2cccc(O)c2C1` (centres undefined) gave a pKi of 6.00. Under `CN1C2CCC1CC(OC(=O)c1c[nH]c3ccccc13)C2` (centres undefined) stands 6.26; under `O=C(c1ccc(F)cc1)C1CCN(CCn2c(=O)[nH]c3ccccc3c2=O)CC1` [3-(2-{4-[(4-fluorophenyl)carbonyl]piperidin-1-yl}ethyl)-1,2,3,4-tetrahydroquinazoline-2,4-dione], 6.00. `Cn1cc(CCN)c2cc(O)ccc21` [5-HT,omega-N-Me] showed a negative logarithm of the Ki (pKi) of 5.84. The compound `CCN(CC)C(=O)[C@@H]1C=C2c3cccc4[nH]cc(c34)C[C@H]2N(C)C1` [(4R,7R)-N,N-diethyl-6-methyl-6,11-diazatetracyclo[7.6.1.0^{2,7}.0^{12,16}]hexadeca-1(16),2,9,12,14-pentaene-4-carboxamide] showed a pKi of 6.00. The figure for `COc1cc(N)c(Cl)cc1C(=O)NC1CCN2CCCC1C2` (centres undefined) [NSC_3035240] is 6.61. Regarding `CNS(=O)(=O)Cc1ccc2[nH]cc(CCN(C)C)c2c1` [Sumax], the pKi was 6.00. `COc1cc(N)c(Cl)cc1C(=O)NC1CN2CCC1CC2` (centres undefined) [ZACOPRIDE,R] showed a negative logarithm of the Ki (pKi) of 6.09. `COc1ccc2[nH]cc(CCN)c2c1` [tryptamine, 5-Methoxy] showed a pKi of 6.40.
